Reference: article PMC12624743 (ACS Infectious Diseases, 2025)
In brackets after ≈: the same amount, converted by molar mass.

Assays:
[1] = test system: N. gonorrhoeae FA1090 (ATCC 700825); assay: MIC by agar dilution, parental strain FA1090; format: cell-based; details: Neisseria gonorrhoeae, ATCC700825, parental strain FA1090, GyrA WT / ParC WT
Procedure: A series of isogenic N. gonorrhoeae strains was constructed that carried the specific target mutations GyrA^A92T or GyrA^D90N either alone or in combination with ParC^D86N or GyrA^S91F/D95G in a ciprofloxacin-susceptible strain, FA1090 (ATCC 700825).
All N. gonorrhoeae isolates were cultured and grown on GC agar plates or in fastidious broth (Remel, 07664). Minimum inhibitory concentration (MIC) of test compounds was determined by an agar dilution method, the reference testing method for N. gonorrhoeae according to the standards of the Clinical and Laboratory Standards Institute and the CDC. MIC values were determined after incubation at 37 °C for 48 h in 5% CO2.

[2] = test system: N. gonorrhoeae FA1090-Q1 (GyrA^S91F/D95G, ParC WT); assay: MIC by agar dilution, fluoroquinolone-resistant GyrA^S91F/D95G strain; format: cell-based; details: Neisseria gonorrhoeae
Procedure: Minimum inhibitory concentration (MIC) of test compounds was determined by an agar dilution method, the reference testing method for N. gonorrhoeae according to the standards of the Clinical and Laboratory Standards Institute and the CDC.

Structure (SMILES): O=C(O)c1cn(C2CC2)c2cc(N3CCNCC3)c(F)cc2c1=O [ciprofloxacin]
- MIC [1]: 0.004 µg/mL
- MIC [2]: 0.25 µg/mL (≈ 0.754 µM)
